For the test, the system named is RSV (Long). In words: RSV cytopathic effect (CPE)-based viral replication assay. The format is cell-based, respiratory syncytial virus (RSV). To be noted: read-out: EC50 (nm). The method, then:
Example A: RSV Cytopathic Effect
Compounds of the invention are initially tested in a cytopathic effect (CPE)-based viral replication assay using immortalized cells and a laboratory strain of RSV (Long). This assay evaluates the ability of a compound to inhibit viral replication.
Assay plates are prepared by seeding 2,500 HEp-2 cells (ATCC) per well of a 384-well black clear-bottom plate (Greiner Bio-One) in 20 μL of assay media (defined as DMEM supplemented with 2% heat-inactivated fetal bovine serum and 1% Penicillin/Streptomycin). Assay plates are incubated overnight at 37° C. in an incubator containing 5% CO2. The following day, a 10-point serial dilution of test compound is prepared in DMSO. Compounds are subsequently diluted with assay media and 20 μL of diluted compound (containing 1.5% DMSO) is transferred to an assay plate for evaluation of antiviral activity.
For the CPE assay, cells are infected at a Multiplicity of Infection (MOI) of 0.015 using 20 μL of RSV Long (ATCC) diluted in assay media. The DMSO concentration is constant throughout the assay plate, including the negative and positive controls. The assay plate is incubated for 3 days at 37° C. in an incubator containing 5% CO2. Cell viability is evaluated with the addition of 10 μL of CellTiter-Glo (ProMega). Luminescence is measured using an EnVision plate reader (Perkin Elmer). EC50 values are calculated using the raw data from the CPE assays.
(Protection from cytopathic effect is a common read-out in antiviral testing.)

The mark [1] stands for this setting: human respiratory syncytial virus, HEp-2, 72 h, HEp-2 cells infected with RSV Long at MOI 0.015, 3 days at 37° C., cell viability by CellTiter-Glo luminescence.

Where two headings read alike, the source gives them in different places.

What is called EC50 is the concentration that produces a half-maximal response. Regarding `COC(=O)N1CCC2(CC1)C(=O)N(Cc1ncc3ccccc3c1CCCCO)c1cnccc12` [Example 21b, Methyl 1′-((4-(4-hydroxybutyl)isoquinolin-3-yl)methyl)-2′-oxo-1′,2′-dihydrospiro[piperidine-4,3′-pyrrolo[2,3-c]pyridine]-1-carboxylate], the EC50 under setting [1] amounted to 6.4 nM.

On to `O=c1n(Cc2ncc3ccccc3c2CCCCO)c2cnccc2n1S(=O)(=O)C1CC1` [Example 22b, 1-(cyclopropylsulfonyl)-3-((4-(4-hydroxybutyl)isoquinolin-3-yl)methyl)-1H-imidazo[4,5-c]pyridin-2(3H)-one], for which the EC50 under setting [1] was found to be 15 nM.

For the compound `COC(=O)N1CCC(n2c(=O)n(Cc3ncc4cc(C#N)ccc4c3CCCCO)c3cnccc32)CC1` [Example 23b, methyl 4-(3-((7-cyano-4-(4-hydroxybutyl)isoquinolin-3-yl)methyl)-2-oxo-2,3-dihydro-1H-imidazo[4,5-c]pyridin-1-yl)piperidine-1-carboxylate], under setting [1], the 50% effective concentration (EC50) was 41 nM.

Consider `COC(=O)N1CCC(n2c(=O)n(Cc3ncc4cc(CN)ccc4c3CCCCO)c3cnccc32)CC1` [Example 24, Methyl 4-(3-((7-(aminomethyl)-4-(4-hydroxybutyl)isoquinolin-3-yl)methyl)-2-oxo-2,3-dihydro-1H-imidazo[4,5-c]pyridin-1-yl)piperidine-1-carboxylate], for which the concentration giving a half-maximal response (EC50) under setting [1] is 2.4 nM.

On to `N#Cc1ccc2c(CCCCO)c(Cn3c(=O)n(C4CC4)c4ccncc43)ncc2c1` [Example 25, 3-((1-cyclopropyl-2-oxo-1H-imidazo[4,5-c]pyridin-3(2H)-yl)methyl)-4-(4-hydroxybutyl)isoquinoline-7-carbonitrile], for which the EC50 under setting [1] was 280 nM.

Consider `NCc1ccc2c(CCCCO)c(Cn3c(=O)n(C4CC4)c4ccncc43)ncc2c1` [Example 26, 3-((7-(Aminomethyl)-4-(4-hydroxybutyl)isoquinolin-3-yl)methyl)-1-cyclopropyl-1H-imidazo[4,5-c]pyridin-2(3H)-one], for which the EC50 under setting [1] turned out to be 5.9 nM.

Turning to `NCc1ccc2c(CCCCO)c(Cn3c(=O)n(C4CC4)c4ccccc43)ncc2c1` [Example 27], the EC50 under setting [1] worked out at 17 nM.

Consider `COC(=O)N1CC2(C1)C(=O)N(Cc1ncc3ccccc3c1CCCCO)c1ccccc12` [Example 28b, Methyl 1′-((4-(4-hydroxybutyl)isoquinolin-3-yl)methyl)-2′-oxospiro[azetidine-3,3′-indoline]-1-carboxylate], for which the EC50 under setting [1] was 6.8 nM.

Turning to `O=c1n(Cc2ncc3c(F)cccc3c2CCCCO)c2cnccc2n1C1CC1` [Example 29, 1-Cyclopropyl-3-((8-fluoro-4-(4-hydroxybutyl)isoquinolin-3-yl)methyl)-1H-imidazo[4,5-c]pyridin-2(3H)-one], under setting [1], the EC50 stood at 160 nM.

On to `COC(=O)N1CCC(n2c(=O)n(Cc3ncc4cccc(F)c4c3CCCCO)c3cnccc32)CC1` [Example 30, Methyl 4-(3-((5-fluoro-4-(4-hydroxybutyl)isoquinolin-3-yl)methyl)-2-oxo-2,3-dihydro-1H-imidazo[4,5-c]pyridin-1-yl)piperidine-1-carboxylate], for which, under setting [1], the EC50 worked out at 18 nM.

As for `O=c1n(Cc2ncc3cccc(F)c3c2CCCCO)c2cnccc2n1C1CC1` [Example 31, 1-Cyclopropyl-3-((5-fluoro-4-(4-hydroxybutyl)isoquinolin-3-yl)methyl)-1H-imidazo[4,5-c]pyridin-2(3H)-one], the EC50 under setting [1] was determined as 140 nM.

With `N[C@@H]1CCN(c2ccc3c(CCCCO)c(Cn4c(=O)n(C5CC5)c5ccncc54)ncc3c2)C1` [Example 32c, (R)-3-((7-(3-aminopyrrolidin-1-yl)-4-(4-hydroxybutyl)isoquinolin-3-yl)methyl)-1-cyclopropyl-1H-imidazo[4,5-c]pyridin-2(3H)-one], the 50% effective concentration (EC50) under setting [1] turned out to be 5800 nM.

For the compound `N[C@H]1CCN(c2ccc3c(CCCCO)c(Cn4c(=O)n(C5CC5)c5ccncc54)ncc3c2)C1` [Example 33, (S)-3-((7-(3-aminopyrrolidin-1-yl)-4-(4-hydroxybutyl)isoquinolin-3-yl)methyl)-1-cyclopropyl-1H-imidazo[4,5-c]pyridin-2(3H)-one], the EC50 under setting [1] amounted to 1300 nM.

`O=c1n(Cc2ncc3ccccc3c2CCCCO)c2cnccc2n1C1CN(S(=O)(=O)C2CC2)C1` [Example 34, 1-(1-(cyclopropylsulfonyl)azetidin-3-yl)-3-((4-(4-hydroxybutyl)isoquinolin-3-yl)methyl)-1H-imidazo[4,5-c]pyridin-2(3H)-one]: the EC50 under setting [1] came to 33 nM.

In the case of `O=C(OC1CC1)N1CCC(n2c(=O)n(Cc3ncc4ccccc4c3CCCCO)c3cnccc32)CC1` [Example 35, cyclopropyl 4-(3-((4-(4-hydroxybutyl)isoquinolin-3-yl)methyl)-2-oxo-2,3-dihydro-1H-imidazo[4,5-c]pyridin-1-yl)piperidine-1-carboxylate], the EC50 under setting [1] amounted to 2.4 nM.

As for `CC(C)(C)OC(=O)N1CC2(C1)C(=O)N(Cc1ncc3ccccc3c1CCCCO)c1ccccc12` [Example 36c, tert-butyl 1′-((4-(4-hydroxybutyl)isoquinolin-3-yl)methyl)-2′-oxospiro[azetidine-3,3′-indoline]-1-carboxylate], the 50% effective concentration (EC50) under setting [1] was 2.2 nM.

For the compound `CS(=O)(=O)N1CCC2(CC1)C(=O)N(Cc1ncc3ccccc3c1CCCCO)c1cnccc12` [Example 37c, 1′-((4-(4-Hvdroxybutyl)isoquinolin-3-yl)methyl)-1-(methylsulfonyl)spiro[piperidine-4,3′-pyrrolo[2,3-c]pyridin]-2′(1′H)-one], the concentration for a half-maximal effect (EC50) (HEp-2 cells infected with RSV Long at MOI 0.015, 3 days at 37° C., cell viability by CellTiter-Glo luminescence) is 7.2 nM.

Regarding `CNC(=O)N1CC2(C1)C(=O)N(Cc1ncc3ccccc3c1CCCCO)c1ccccc12` [Example 38, 1′-((4-(4-hydroxybutyl)isoquinolin-3-yl)methyl)-N-methyl-2′-oxospiro[azetidine-3,3′-indoline]-1-carboxamide], the EC50 under setting [1] worked out at 6.4 nM.

On to `NC1(C(=O)N2CCC3(CC2)C(=O)N(Cc2ncc4ccccc4c2CCCCO)c2cnccc23)CC1` [Example 39b, 1-(1-Aminocyclopropanecarbonyl)-1′-((4-(4-hydroxybutyl)isoquinolin-3-yl)methyl)spiro[piperidine-4,3′-pyrrolo[2,3-c]pyridin]-2′(1′H)-one], for which, under setting [1], the half-maximal effective concentration (EC50) was found to be 35 nM.

On to `O=C1N(Cc2ncc3ccccc3c2CCCCO)c2ccccc2C12CNC2` [Example 40, 1′-((4-(4-Hydroxybutyl)isoquinolin-3-yl)methyl)spiro[azetidine-3,3′-indolin]-2′-one], for which the EC50 under setting [1] was 110 nM.

As to `CN1CC2(C1)C(=O)N(Cc1ncc3ccccc3c1CCCCO)c1ccccc12` [Example 41, 1′-((4-(4-Hydroxybutyl)isoquinolin-3-yl)methyl)-1-methylspiro[azetidine-3,3′-indolin]-2′-one], the 50% effective concentration (EC50) (human respiratory syncytial virus, HEp-2, 72 h) amounted to 660 nM.

As to `CS(=O)(=O)N1CC2(C1)C(=O)N(Cc1ncc3ccccc3c1CCCCO)c1ccccc12` [Example 42, 1′-((4-(4-Hydroxybutyl)isoquinolin-3-yl)methyl)-1-(methylsulfonyl)spiro[azetidine-3,3′-indolin]-2′-one], the EC50 under setting [1] amounted to 4.6 nM.

In the case of `CN1CCN(Cc2ccc3c(CCCCO)c(Cn4c(=O)n(C5CC5)c5ccncc54)ncc3c2)CC1` [Example 43j, 1-Cyclopropyl-3-((4-(4-hydroxybutyl)-7-((4-methylpiperazin-1-yl)methyl)isoquinolin-3-yl)methyl)-1H-imidazo[4,5-c]pyridin-2(3H)-one], the EC50 under setting [1] was 2500 nM.

Take `COC(=O)N1CC2(C1)C(=O)N(Cc1ncc3ccccc3c1-c1ccc(C#N)nc1)c1ccccc12` [Example 44c, Methyl 1′-((4-(6-cyanopyridin-3-yl)isoquinolin-3-yl)methyl)-2′-oxospiro[azetidine-3,3′-indoline]-1-carboxylate]: the concentration giving a half-maximal response (EC50) under setting [1] is 2.8 nM.

With `CS(=O)(=O)N1CC2(C1)C(=O)N(Cc1ncc3ccccc3c1-c1ccc(C#N)nc1)c1ccccc12` [Example 45], the half-maximal effective concentration (EC50) under setting [1] amounted to 3 nM.

Consider `NC1(c2ccc3c(CCCCO)c(Cn4c(=O)n(C5CC5)c5ccncc54)ncc3c2)COC1` [Example 46g, 3-((7-(3-Aminooxetan-3-yl)-4-(4-hydroxybutyl)isoquinolin-3-yl)methyl)-1-cyclopropyl-1H-imidazo[4,5-c]pyridin-2(3H)-one], for which, under setting [1], the concentration giving a half-maximal response (EC50) came to 8600 nM.

In the case of `O=C1N(Cc2ncc3ccccc3c2CCCCO)c2cnccc2C12CC2` [Example 49, 1′-((4-(4-hydroxybutyl)isoquinolin-3-yl)methyl)spiro[cyclopropane-1,3′-pyrrolo[2,3-c]pyridin]-2′(1′H)-one], the EC50 under setting [1] is 18 nM.

As to `NC1(C(=O)N2CCC3(CC2)C(=O)N(Cc2ncc4ccccc4c2-c2ccc(C(=O)O)nc2)c2cnccc23)CC1` [Example 50b, 5-(3-((1-(1-aminocyclopropanecarbonyl)-2′-oxospiro[piperidine-4,3′-pyrrolo[2,3-c]pyridin]-1′(2′H)-yl)methyl)isoquinolin-4-yl)picolinic acid], under setting [1], the EC50 worked out at 4.3 nM.

`COC(=O)c1ccc(-c2c(CN3C(=O)C4(CCN(C(=O)C5(N)CC5)CC4)c4ccncc43)ncc3ccccc23)cn1` [Example 50c, Methyl 5-(3-((1-(1-aminocyclopropanecarbonyl)-2′-oxospiro[piperidine-4,3′-pyrrolo[2,3-c]pyridin]-1′(2′H)-yl)methyl)isoquinolin-4-yl)picolinate]: the concentration giving a half-maximal response (EC50) under setting [1] came to 17 nM.

These data come from patent US20190002436A1, “RESPIRATORY SYNCYTIAL VIRUS INHIBITORS” (MEDIVIR AB, priority 2015, published 2019).
